The text below walks through data of patent USRE48711E1, “Apoptosis signal-regulating kinase inhibitors” (Gilead Sciences, Inc., priority 2009, dated 2021).

This assay concerns the target ASK1 (Apoptosis Signal-Regulating Kinase 1) (Homo sapiens (Human), UniProt Q99683). As to the kind of experiment: ASK1 (Apoptosis Signal-Regulating Kinase 1) TR-FRET Kinase Assay (Biochemical IC50). The settings on record: TR-FRET, biotin-MBP substrate, 20 min pre-incubation, ATP added as 300 μM solution.

Chain of ASK1 (Apoptosis Signal-Regulating Kinase 1) (Q99683 649-946): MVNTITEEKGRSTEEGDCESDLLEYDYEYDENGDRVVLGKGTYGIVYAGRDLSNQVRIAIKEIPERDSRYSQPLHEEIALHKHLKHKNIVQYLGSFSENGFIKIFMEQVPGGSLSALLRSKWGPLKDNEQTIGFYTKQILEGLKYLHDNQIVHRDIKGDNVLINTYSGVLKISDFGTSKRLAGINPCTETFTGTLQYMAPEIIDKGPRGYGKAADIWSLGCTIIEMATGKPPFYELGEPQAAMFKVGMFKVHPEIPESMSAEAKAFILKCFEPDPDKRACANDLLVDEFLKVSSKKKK
Protocol: The ability of compounds to inhibit ASK1 kinase activity was determined using a time resolved fluorescence resonance energy transfer [TR-FRET] assay utilizing biotinylated myelin basic protein [biotin-MBP] as the protein substrate. […] The enzyme was allowed to pre-incubate with compound for 20 minutes prior to initiating the kinase reaction with the addition of 5 μL/well 300 μM ATP in buffer (50 mM MOPS, pH 7.0, 5 mM Mg-acetate, 1 mM DTT, 5% DMSO) using the Decrac Fluidics Equator. The kinase reactions were allowed to proceed for 20 minutes at ambient temperature and were subsequently stopped with the addition of 5 μL/well 25 mM EDTA using the Deerac Fluidics Equator. […] The TR-FRET signal was then read on a Perkin. Elmer Envision plate reader after incubating the plates at ambient temperature for 2 hours.

`CN1CCC(n2cnnc2-c2cccc(NC(=O)c3cc(-c4ccc(C5CC5)nc4)ccn3)n2)CC1` [Example 241, 6-cyclopropyl-N-(6-(4-(1-methylpiperidin-4-yl)-4H-1,2,4-triazol-3-yl)pyridin-2-yl)-3,4′-bipyridine-2′-carboxamide] showed an IC50 of 0.616 µM.
`O=C(Nc1cccc(-c2cncn2C2CC2)c1)c1cc(-c2ccc(C3CC3)nc2)ccn1` [Example 107, 6-cyclopropyl-N-(3-(1-cyclopropyl-1H-imidazol-5-yl)phenyl)-3,4′-bipyridine-2′-carboxamide] came in with an IC50 of 0.031 µM.
To `O=C(Nc1cccc(-c2nncn2C2CC2)c1)c1cc(-c2cccnc2)cc(C(F)(F)F)n1` [Example 124, N-(3-(4-cyclopropyl-4H-1,2,4-triazol-3-yl)phenyl)-6′-(trifluoromethyl)-3,4′-bipyridine-2′-carboxamide] belongs 0.422 µM.
`NS(=O)(=O)c1ccc(-c2ccnc(C(=O)Nc3cccc(-c4nncn4C4CC4)c3)c2)cc1` [Example 97, N-(3-(4-cyclopropyl-4H-1,2,4-triazol-3-yl)phenyl)-4-(4-sulfamoylphenyl)picolinamide] had an IC50 of 0.081 µM.
The value for `CCNc1ccc(-c2ccnc(C(=O)Nc3cccc(-c4nncn4C4CC4)c3)c2)cn1` [Example 119, N-(3-(4-cyclopropyl-4H-1,2,4-triazo1-3-yl)phenyl)-6-(ethylamino)-3,4′-bipyridine-2′-carboxamide] was 0.009 µM.
To `Cc1ncc(-c2ccnc(C(=O)Nc3cccc(-c4nncn4C4CC4)c3)c2)n1C` [Example 73, N-(3-(4-cyclopropyl-4H-1,2,4-triazol-3-yl)phenyl)-4-(1,2-dimethyl-1H-imidazol-5-yl)picolinamide] belongs 0.011 µM; to `O=C(Nc1cccc(-c2nncn2C2CC2)c1)c1cc(-n2cnc(C(O)C(F)(F)F)c2)ccn1` (stereo not shown) [Example 206, N-(3-(4-cyclopropyl-4H-1,2,4-triazol-3-yl)phenyl)-4-(4-(2,2,2-trifluoro-1-hydroxyethyl)-1H-imidazol-1-yl)picolinamide], 0.009 µM; to `CC(C)NS(=O)(=O)c1ccc(-c2ccnc(C(=O)Nc3cccc(-c4nncn4C4CC4)c3)c2)cc1` [Example 99, N-(3-(4-cyclopropyl-4H-1,2,4-triazol-3-yl)phenyl)-4-(4-(N-isopropylsulfamoyl)phenyl)picolinamide], 0.017 µM.
`O=C(Nc1cccc(-c2nncn2C2CC2)n1)c1cc(-c2cnc3ccccc3c2)ccn1` [Example 112, N-(6-(4-cyclopropyl-4H-1,2,4-triazol-3-yl)pyridin-2-yl)-4-(quinolin-3-yl)picolinamide]: the half-maximal inhibitory concentration (IC50) is 0.014 µM.
`C[C@H](O)Cn1cnnc1-c1cccc(NC(=O)c2cc(-c3cccnc3)ccn2)c1` [Example 35, (S)-N-(3-(4-(2-hydroxypropyl)-4H-1,2,4-triazol-3-yl)phenyl)-3,4′-bipyridine-2′-carboxamide] returned an IC50 of 0.087 µM.
The value for `O=C(Nc1cccc(-c2nncn2C2CC2)n1)c1cccc(-c2cnc3ccccc3c2)c1` [Example 150, N-(6-(4-cyclopropyl-4H-1,2,4-triazol-3-yl)pyridin-2-yl)-3-(quinolin-3-yl)benzamide] was 0.017 µM.
For `CNS(=O)(=O)c1ccc(-c2ccnc(C(=O)Nc3cccc(-c4nncn4C4CC4)n3)c2)cc1` [Example 111, N-(6-(4-cyclopropyl-4H-1,2,4-triazol-3-yl)pyridin-2-yl)-4-(4-(N-methylsulfamoyl)phenyl)picolinamide], the IC50 was 0.009 µM.
In the case of `O=C(Nc1cccc(-c2nncn2C2CC2)n1)c1ccnc(-c2ccc(C3CC3)nc2)c1` [Example 260, 6′-cyclopropyl-N-(6-(4-cyclopropyl-4H-1,2,4-triazol-3-yl)pyridin-2-yl)-2,3′-bipyridine-4-carboxamide], the concentration for half-maximal inhibition (IC50) amounted to 0.03 µM.
To `CC(O)[C@@H](C)n1cnnc1-c1cccc(NC(=O)c2cc(-c3ccc(C4CC4)nc3)ccn2)n1` (stereo partly drawn) [Example 248, 6-cyclopropyl-N-(6-(4-((2R)-3-hydroxybutan-2-yl)-4H-1,2,4-triazol-3-yl)pyridin-2-yl)-3,4′-bipyridine-2′-carboxamide] belongs 0.007 µM; to `O=C(Nc1cccc(-c2nncn2C2CC2)n1)c1cc(N2CCCC(O)C2)ccn1` (stereo not shown) [Example 175, N-(6-(4-cyclopropyl-4H-1,2,4-triazol-3-yl)pyridin-2-yl)-4-(3-hydroxypiperidin-1-yl)picolinamide], 0.01 µM.
The value for `O=C(Nc1cccc(-c2nncn2C2CC2)c1)c1cc(-n2ncnc2C2CC2)ccn1` [Example 203, 4-(5-cyclopropyl-1H-1,2,4-triazol-1-yl)-N-(3-(4-cyclopropyl-4H-1,2,4-triazol-3-yl)phenyl)picolinamide] was 0.538 µM.
The value for `N#Cc1cncc(-c2ccnc(C(=O)Nc3cccc(-c4nncn4C4CC4)c3)c2)c1` [Example 65, 5-cyano-N-(3-(4-cyclopropyl-4H-1,2,4-triazol-3-yl)phenyl)-3,4′-bipyridine-2′-carboxamide] was 0.03 µM; that for `CC(C)(O)c1ccc(-c2ccnc(C(=O)Nc3cccc(-c4nncn4C4CC4)c3)c2)cn1` [Example 165, N-(3-(4-cyclopropyl-4H-1,2,4-triazol-3-yl)phenyl)-6-(2-hydroxypropan-2-yl)-3,4′-bipyridine-2′-carboxamide] was 0.005 µM; that for `CCc1cn(-c2ccnc(C(=O)Nc3cccc(-c4nncn4C4CC4)c3)c2)cn1` [Example 158, N-(3-(4-cyclopropyl-4H-1,2,4-triazol-3-yl)phenyl)-4-(4-ethyl-1H-imidazol-1-yl)picolinamide] was 0.005 µM.
`Cc1c(C(=O)O)ncn1-c1cccc(C(=O)Nc2cccc(-c3nncn3C3CC3)n2)c1` [Example 213, 1-(3-(6-(4-cyclopropyl-4H-1,2,4-triazol-3-yl)pyridin-2-ylcarbamoyl)phenyl)-5-methyl-1H-imidazole-4-carboxylic acid] returned an IC50 of 0.011 µM.
The value for `O=C(Nc1cccc(-c2nncn2C2CC2)c1)c1cc(-c2cnc3scnn23)ccn1` [Example 121, N-(3-(4-cyclopropyl-4H-1,2,4-triazol-3-yl)phenyl)-4-(imidazo[2,1-b][1,3,4]thiadiazol-5-yl)picolinamide] was 0.047 µM.
The value for `CC(C)(O)c1ccc(-c2cccc(C(=O)Nc3cccc(-c4nncn4C4CC4)n3)c2)cn1` [Example 204, N-(6-(4-cyclopropyl-4H-1,2,4-triazol-3-yl)pyridin-2-yl)-3-(6-(2-hydroxypropan-2-yl)pyridin-3-yl)benzamide] was 0.017 µM; that for `CC(C)[C@H](C)n1cnnc1-c1cccc(NC(=O)c2cc(-n3cnc(C4CC4)c3)ccn2)c1` [Example 264, (S)-4-(4-cyclopropyl-1H-imidazol-1-yl)-N-(3-(4-(3-methylbutan-2-yl)-4H-1,2,4-triazol-3-yl)phenyl)picolinamide] was 0.023 µM.
The value for `O=C(Nc1cccc(-c2nncn2C2CC2)c1)c1cc(-n2cnc3cccnc32)ccn1` [Example 82, N-(3-(4-cyclopropyl-4H-1,2,4-triazol-3-yl)phenyl)-4-(3H-imidazo[4,5-b]pyridin-3-yl)picolinamide] was 0.02 µM.
On to `O=C(Nc1cccc(-c2nncn2C2CC2)c1)c1cc(-c2cncc(C(F)(F)F)c2)ccn1` [Example 59, N-(3-(4-cyclopropyl-4H-1,2,4-triazol-3-yl)phenyl)-5-(trifluoromethyl)-3,4′-bipyridine-2′-carboxamide], for which 0.044 µM corresponded to half-maximal inhibition (IC50).
`O=C(Nc1cccc(-c2nncn2C2CC2)c1)c1cc(-c2cnc3[nH]ccc3c2)ccn1` [Example 92, N-(3-(4-cyclopropyl-4H-1,2,4-triazol-3-yl)phenyl)-4-(1H-pyrrolo[2,3-b]pyridin-5-yl)picolinamide] registered an IC50 of 0.013 µM.
Molecule `O=C(Nc1cccc(-c2nncn2C2CC2)n1)c1ccc(Cl)c(-n2cnc(C3CC3)c2)c1` [Example 227, 4-chloro-3-(4-cyclopropyl-1H-imidazol-1-yl)-N-(6-(4-cyclopropyl-4H-1,2,4-triazol-3-yl)pyridin-2-yl)benzamide] returned an IC50 of 0.008 µM.
To `O=C(Nc1cccc(-c2nncn2C2CC2)n1)c1cccc(-c2cnc3cccnc3c2)c1` [Example 191, N-(6-(4-cyclopropyl-4H-1,2,4-triazol-3-yl)pyridin-2-yl)-3-(1,5-naphthyridin-3-yl)benzamide] belongs 0.018 µM; to `CN1CCC(c2ccc(-c3ccnc(C(=O)Nc4cccc(-c5nncn5C5CC5)c4)c3)cn2)C1=O` (stereo not shown) [Example 110, N-(3-(4-cyclopropyl-4H-1,2,4-triazol-3-yl)phenyl)-6-(1-methyl-2-oxopyrrolidin-3-yl)-3,4′-bipyridine-2′-carboxamide], 0.008 µM; to `O=C(Nc1cccc(-c2nncn2C2CC2)c1)c1cc(-n2nnc3ccccc32)ccn1` [Example 85, 4-(1H-benzo[d][1,2,3]triazol-1-yl)-N-(3-(4-cyclopropyl-4H-1,2,4-triazol-3-yl)phenyl)picolinamide], 0.141 µM.
`CCc1ncc(-c2ccnc(C(=O)Nc3cccc(-c4nncn4C4CC4)c3)c2)cc1F` [Example 138, N-(3-(4-cyclopropyl-4H-1,2,4-triazol-3-yl)phenyl)-6-ethyl-5-fluoro-3,4′-bipyridine-2′-carboxamide] had an IC50 of 0.008 µM.
To `O=C(Nc1cccc(-c2nncn2C2CC2)n1)c1cc(-c2ccc(C3CC3)nc2)ccn1` [Example 100, 6-cyclopropyl-N-(6-(4-cyclopropyl-4H-1,2,4-triazol-3-yl)pyridin-2-yl)-3,4′-bipyridine-2′-carboxamide] belongs 0.006 µM; to `O=C(Nc1cccc(-c2nncn2C2CC2)c1)c1cc(-c2cnc3ccccc3c2)cc(C(F)(F)F)n1` [Example 125, N-(3-(4-cyclopropyl-4H-1,2,4-triazol-3-yl)phenyl)-4-(quinolin-3-yl)-6-(trifluoromethyl)picolinamide], 1.45 µM; to `COc1ncc(-c2ccnc(C(=O)Nc3cccc(-c4nncn4C4CC4)c3)c2)cn1` [Example 45, N-(3-(4-cyclopropyl-4H-1,2,4-triazol-3-yl)phenyl)-4-(2-methoxypyrimidin-5-yl)picolinamide], 0.009 µM.
